Read-outs that look alike come from different tables or passages of the source.
Tests used:
[1] = system: Calu-6 cells; test: CellTiter-Glo anti-proliferation, Calu-6; type: cell-based, human; conditions: Calu-6 (Q61K)
[2] = target: T1, HiBiT-KRAS^G12D in GP5d cells (Homo sapiens, UniProt P01116, G12D); test: HiBiT degradation assay, HiBiT-KRAS^G12D GP5d cells; type: cell-based; conditions: for Dmax / DC50: Gp5D (HiBit-G12D)
T1 construct: host or cells: GP5d HiBiT KRAS G12D

[3] = target: T2, KRAS^G12R in KP-2 cells (Homo sapiens, UniProt P01116, G12R); test: Endogenous KRAS degradation by Western blot in KP-2 cells; type: cell-based; conditions: KP-2 (G12R)
T2 construct: host or cells: KP-2

[4] = target: KRAS^WT-GDP (Homo sapiens, UniProt P01116); test: Binary SPR KRAS^WT-GDP (protocol from Lito et al.); conditions: read-out: KRAS^WT-GDP KD
[5] = target: T3, KRAS^G12R in Cal-62 cells (Homo sapiens, UniProt P01116, G12R); test: Endogenous KRAS degradation by Western blot in Cal-62 cells; type: cell-based; conditions: Cal-62 (G12R)
T3 construct: Potent degradation of endogenous KRAS^G12R was achieved by ACBI4 in the Cal-62 cell line; host or cells: Cal-62

[6] = target: T4, HiBiT-KRAS^G12R in Cal-62 cells (Homo sapiens, UniProt P01116, G12R); test: Kinetic degradation (live mode), Cal-62 HiBiT KRAS^G12R cells; type: cell-based; conditions: Cal62-HiBit (G12R)
T4 construct: generated a HiBiT-KRAS^G12R Cal-62 knock-in cell line using the CRISPR Cas9 technology; endogenous in cells; host or cells: Cal-62 HiBiT KRAS G12R (in-house CRISPR knock-in)

[7] = target: T4, HiBiT-KRAS^G12R in Cal-62 cells; test: HiBiT degradation assay, HiBiT-KRAS^G12R Cal-62 cells; type: cell-based; conditions: Cal-62 (HiBitG12R)
Method: (Gibco) with 10% FBS in a humidiﬁed cell incubator at 37 °C and 5% CO2.
Plasmids pSpCas9 BB-2A-GFP (PX458) containing gRNA, Cas9 and GFP sequences and […] plasmid containing ssDNA donor template were purchased from Genscript. Cal-62 cells were plated at 5x10^5 cells in a 6-well plate and left to adhere overnight. The next day, the transfection plasmids (0.5 µg of each gRNA plasmid and 0.5 µg of donor template) were diluted in Opti-MEM, combined with Lipofectamine solution in Opti-mem according to the manufacturer’s protocol and incubated for 20 min at RT. The mixture was added to the cells and incubated for 24 h. The next day the media was exchanged, and the cells were left to incubate for another 24 h. GFP positive cells were single-cell sorted into 96-well plates using ﬂuorescence-activated cell sorting (FACS) at the Flow Cytometry and Cell Sorting Facility (University of Dundee). Sorted cells were left to grow in conditioned media supplemented with 20% FBS for 3 weeks. Formed colonies were tested for the expression of HiBiT KRAS using the Nano-Glo® HiBiT Lytic system (Promega). The positive clones were additionally tested for insertion of the HiBiT tag by western blotting for KRAS (mouse anti-KRAS, LsBio) and HiBiT (mouse anti-HiBiT, Promega) and the insert was further conﬁrmed by Sanger sequencing. […]
gRNA1: 5’ […] 3’, gRNA2: 5’ […] 3’, gRNA 3: 5’ […]
template DNA: 5’ caatccagctt tatttgacac tcattctctc aactctcatc tgattcttac tgttaatatt tatccaagag aactactgcc atgatgcttt aaaagttttt ctgtagctgt tgcatattga cttctaacac ttagaggtgg gggtccacta ggaaaactgt aacaataaga gtggagatag ctgtcagcaa cttttgtgag ggtgtgctac agggtgtaga gcactgtgaa gtctctacat gagtgaagtc atgatatgat cctttgagag cctttagccg ccgcagaaca gcagtctggc tatttagata gaacaacttg attttaagat aaaagaactg tctatgtagc atttatgcat ttttcttaag cgtcgatgga ggagtttgta aatgaagtac agttcattac gatacacgtc tgcagtcaac tggaattttc atgattgaat tttgtaaggt attttgaaat aatttttcat ataaaggtga gtttgtatta aaaggtactg gtggagtatt tgatagtgta ttaaccttat gtgtgacatg ttctaatata gtcacatttt cattattttt attataaggc ctgctgaaa […]
atg[…]act gaGtaCaaGctCgtAgtagttggag ctCgtggc gta ggc aag agt gcc ttA acAatCcaActaattcagaatcat tttgtggacg aatatgatcc aacaatagag gtaaatcttg ttttaatatg catattactg gtgcaggacc attctttgat acagataaag gtttctctga ccattttcat gagtacttat tacaagataa ttatgctgaa agttaagtta tctgaaatgt accttgggtt tcaagttata tgtaaccatt aatatgggaa ctttactttc cttgggagta tgtcagggtc catgatgttc actctctgtg cattttgatt ggaagtgtat ttcagagttt cgtgagaggg tagaaatttg tatcctatct ggacctaaaa gacaatcttt ttattgtaac ttttattttt atgggtttct tggtattgtg acatcatatg taaaggttag atttaattgt actagtgaaa tataattgtt tgatggttga tttttttaaa cttcatcagc agtattttcc tatcttcttc tcaacattag agaacctaca actaccggat aaattttaca aaatgaatta tttgcctaag gtgtggttta tataaaggta ctattaccaa ctttaccttt gctttgttgt catttttaaa tttactcaag gaaatactag gatttaaaaa aaaattcctt 3’
Degradation via Detection of Split Nanoluciferase (HiBiT)
To assess PROTAC-mediated degradation of HiBiT-tagged KRAS constructs, cells were seeded at […]
further incubated at 37 °C for 4 and 24 h. Following incubation, 20 µL per well of Promega Nano-Glo® HiBiT lytic detection reagent mix (Promega Nano-Glo® HiBiT Lytic Detection System […]
plotted as percent of DMSO control.

[8] = target: T5, KRAS^Q61K in Calu-6 cells (Homo sapiens, UniProt P01116, Q61K); test: Endogenous KRAS degradation by Western blot in Calu-6 cells; type: cell-based; conditions: Calu-6 (Q61K)
T5 construct: host or cells: Calu-6

[9] = system: Cal-62 cells; test: CellTiter-Glo anti-proliferation, Cal-62; type: cell-based, human; conditions: Cal-62 (G12R)
[10] = target: T6, KRAS^G12D in GP5d cells (Homo sapiens, UniProt P01116, G12D); test: Endogenous KRAS degradation by Western blot in GP5d cells; type: cell-based
T6 construct: comparison of the degradative effect on endogenous KRAS; host or cells: GP5d

[11] = target: T7, KRAS^Q61L in SW948 cells (Homo sapiens, UniProt P01116, Q61L); test: Endogenous KRAS degradation by Western blot in SW948 cells; type: cell-based
T7 construct: host or cells: SW948

[12] = Homo sapiens, 72 h, read-out: CTG 72h Ic50

Dmax ([2]; 4 h, read-out: DMax 4h) [%]	DC50 ([2]; 4 h, read-out: Dc50 4h) [nM]	Dmax ([2]; 24 h, read-out: DMax 24h) [%]	DC50 ([2]; 24 h, read-out: Dc50 24h) [nM]	Dmax ([3]; 18 h, read-out: DMax 18h) [%]	DC50 ([3]; 18 h, read-out: Dc50 18h) [nM]	Dmax ([5]; 18 h, read-out: DMax 18h) [%]	DC50 ([5]; 18 h, read-out: Dc50 18h) [nM]	1/K (Tau) [6]	Plateau (degradation rate) [6]	Plateu/ Tau [6]	Dmax ([7]; 24 h, read-out: DMax 24h) [%]	DC50 ([7]; 24 h, read-out: Dc50 24h) [nM]	Dmax ([8]; 4 h, read-out: DMax 4h) [%]	Dmax ([10]; 4 h, read-out: DMax 4h) [%]	DC50 ([10]; 4 h, read-out: Dc50 4h) [nM]	Dmax ([10]; 18 h, read-out: DMax 18h) [%]	Dc50 4h ([11]; 4 h)	Dmax ([11]; 18 h, read-out: DMax 18h) [%]	Compound	also measured
79	9.9	94	2.5	50	961	9	282	unstable	unstable	unstable	31	114	11	98.3	7.3	100	unstable	45	Cc1ncsc1-c1ccc([C@H](CO)NC(=O)[C@@H]2C[C@@H](O)CN2C(=O)[C@H](C(C)C)n2cc(OCCCCN3CCCN(c4nccc(-c5noc([C@@]6(C)CCCc7sc(N)c(C#N)c76)n5)n4)[C@@H](C)C3)nn2)cc1 [ACBI3, reference compound]	IC50 [1, 12]: 338 nM; DMax 4h ([3]; 4 h): unstable; Dc50 4h ([3]; 4 h): unstable; Kd [4]: 4.9 ± 2.6 nM; DMax 4h ([5]; 4 h): unstable; Dc50 4h ([5]; 4 h): unstable; DMax 4h ([7]; 4 h): unstable; Dc50 4h ([7]; 4 h): unstable; Dc50 4h ([8]; 4 h): unstable; DMax 18h ([8]; 18 h): unstable; Dc50 18h ([8]; 18 h): unstable; CTG 72h Ic50 [9]: unstable; DMax 4h ([11]; 4 h): unstable; DC50 ([11]; 18 h, read-out: Dc50 18h): 10000 nM
83	14	94	4	70	224	93	418	1.972 µM	0.2614 min⁻¹	2207 M⁻¹ s⁻¹	87	183	25	83.5	68	96.5	unstable	50	CC(C)C(C(=O)N1C[C@H](O)C[C@H]1C(=O)NCc1ccc2cnn(C)c2c1)n1nnc2c1CCC(CCCN1CCCN(c3nccc(-c4noc([C@@]5(C)CCCc6sc(N)c(C#N)c65)n4)n3)[C@@H](C)C1)C2 (mixture of isomers) [Compound 4]	CTG 72h Ic50 [1]: unstable; fold improvement in DC50 over 3 ([2]; HiBiT-KRAS^G12D, 24 h): ~9 fold; Dmax ([3]; 4 h, read-out: DMax 4h): 37%; DC50 ([3]; 4 h, read-out: Dc50 4h): 6 nM; Dmax ([5]; 4 h, read-out: DMax 4h): 64%; DC50 ([5]; 4 h, read-out: Dc50 4h): 1530 nM; Dmax ([7]; 4 h, read-out: DMax 4h): 76%; DC50 ([7]; 4 h, read-out: Dc50 4h): 163 nM; DC50 ([8]; 4 h, read-out: Dc50 4h): 146 nM; Dmax ([8]; 18 h, read-out: DMax 18h): 72%; DC50 ([8]; 18 h, read-out: Dc50 18h): 187 nM; IC50 [9, 12]: 488 nM; DC50 ([10]; 18 h, read-out: Dc50 18h): 16 nM; Dmax ([11]; 4 h, read-out: DMax 4h): 49%; Dc50 18h ([11]; 18 h): unstable
